Key:
STAT1 [1] = assay: GAS reporter assay (cytokine-induced STAT1 reporter gene activity); type: cell-based; conditions: FIG. 7
Procedure: INS-1E cells were transfected with plasmids (GAS reporter assay kit) using DharmaFECT reagent according to the manufacturer's protocol (SABiosciences) in white optical 384-well plates (Corning Life Sciences). After overnight incubation, medium was removed and 50 μL RPMI containing the treated compound, 1% FBS and a combination of cytokines (10 ng/mL IL-1β, 50 ng/mL IFN-γ, 25 ng/mL TNF-α) was added to every well. After treatment with cytokines and compounds for 18 hr, luminescence was measure using Dual-Glo according to the manufacturer's protocol (Promega).

Usp9x [2] = assay: Low-throughput compound pull-down and Western blot; type: binding; conditions: FIG. 13, Western blot
Usp9x [3] = target: T1, Usp9x (Homo sapiens, UniProt Q93008); assay: Usp9x thermal shift assay; type: binding; conditions: FIG. 14, purified Usp9x, compared with WP1130
T1 construct: made in house
Procedure: For each purification, fifty 25-cm dishes of confluent HEK-293 cell lines stably expressing wild-type USP-9X (provided by Dr. Dario Alessi, University of Dundee, Scotland) were employed. Cells were washed twice with ice-cold PBS and lysed in 1 ml of ice-cold lysis buffer. The combined lysates were centrifuged at 26000 g for 30 min at 4° C. and the supernatant incubated with 0.2 ml of rabbit IgG-agarose beads (Sigma) for 1 h at 4° C. The IgG-agarose was washed extensively with lysis buffer containing 0.15 M NaCl, then with several washes in buffer B prior to incubation with 0.250 ml of buffer B containing 0.1 mg of TEV protease (Invitrogen). After 3 h at 4° C.˜70-90% of the TAP-tagged protein had been cleaved from the IgG-agarose and the eluted protein was incubated with 0.1 ml of rabbit calmodulin-Sepharose (Roche) equilibrated in buffer C. After 1 h at 4° C., the calmodulin-Sepharose was washed with buffer C. To elute the protein, the calmodulin-Sepharose was then incubated with 0.1 ml of buffer D for 10 min at 4° C. The eluate was removed from the beads and the elution repeated two or three times. To remove the NaCl present in the buffer containing the eluate protein, the eluates were centrifuged at 1500 g for 1 min at 4° C. in protein desalting spin columns. […]

INS-1E cells = assay: Glucose-stimulated insulin secretion in cytokine-treated INS-1E cells; type: cell-based, rat; conditions: cytokines
Procedure: INS-1E cells were seeded in 96-well plates at 20,000 cells per well and incubated for 48 h in 100 μL of fresh RPMI containing 1% FBS and the cytokine cocktail, in the presence or absence of compounds. Cells were washed and incubated for 2 h in KRBH (135 mM NaCl, 3.6 mM KCl, 5 mM NaHCO3, 0.5 mM NaH2PO4, 0.5 mM MgCl2, 1.5 mM CaCl2, 10 mM HEPES, pH 7.4, 0.1% BSA) without glucose. Cells were subsequently incubated with KRBH containing 2 or 15 mM glucose for 1 h. The supernatant was taken for measurement of released insulin, and 100 μL of acidified ethanol was added to each well for extraction and measurement of cellular insulin content. Insulin was measured with a rat insulin ELISA kit (Alpco).

STAT1 [4] = assay: Nuclear STAT1 translocation; type: cell-based; conditions: FIG. 9
dissociated human islets = assay: Cytokine-induced caspase-3/7 activity in dissociated human islets; type: cell-based; conditions: six-day cytokine treatment, co-incubation
Excerpt: Without being bound by any theory the following postulated to relate the activity of the compounds of Formula I in autoimmune diseases. Human beta-cell apoptosis involves a complex set of signaling cascades initiated by IL-1β, IFN-γ, and TNF-α. IL-1β and TNF-α induce NF-κB expression, while downstream activation of gene expression is thought to occur through nitric oxide (NO) signaling, which both increases the endoplasmic reticulum stress-response pathway and decreases beta-cell function; this pathway works together with IFN-γ-induced STAT-1 signaling to effect beta-cell death. These effects of cytokines are beta cell-specific, and small-molecule suppressors should have little to no effect on other cell types in the pancreas. Small molecules that increase beta-cell survival in the presence of cytokines could be of potential clinical benefit to early-stage type 1 diabetic patients. A number of studies have described small molecules with protective effects in the presence of cytokines; most of these were discovered because of their nonspecific antioxidant or anti-inflammatory effects. […] Because of the use of dissociated islets and a whole-well readout of caspase activity, it cannot be certain that only beta cells are undergoing apoptosis; however, based on previous results in the literature, beta cells may constitute the majority of the apoptotic effect.

STAT1 [5] = assay: STAT1 phosphorylation; type: cell-based; conditions: FIG. 8
Procedure: siRNAs (100 nM) were transfected into INS-1E cells (5,000 cells/well in a 384-well plate) using DharmaFECT reagent. Transfected cells were cultured for 72 hr, then collected for Western blot analysis and cell-based assays. For Western blotting, cells were lysed in RIPA buffer. Total protein was separated by 4-12% SDS-PAGE and transferred to a PVDF membrane. Blots were developed using the chemiluminescence detection system SuperSignal (Thermo Fisher Scientific) and light emission was captured using an Imaging Station 4000MM (Carestream).

T1 sequence (Q93008 whole entry): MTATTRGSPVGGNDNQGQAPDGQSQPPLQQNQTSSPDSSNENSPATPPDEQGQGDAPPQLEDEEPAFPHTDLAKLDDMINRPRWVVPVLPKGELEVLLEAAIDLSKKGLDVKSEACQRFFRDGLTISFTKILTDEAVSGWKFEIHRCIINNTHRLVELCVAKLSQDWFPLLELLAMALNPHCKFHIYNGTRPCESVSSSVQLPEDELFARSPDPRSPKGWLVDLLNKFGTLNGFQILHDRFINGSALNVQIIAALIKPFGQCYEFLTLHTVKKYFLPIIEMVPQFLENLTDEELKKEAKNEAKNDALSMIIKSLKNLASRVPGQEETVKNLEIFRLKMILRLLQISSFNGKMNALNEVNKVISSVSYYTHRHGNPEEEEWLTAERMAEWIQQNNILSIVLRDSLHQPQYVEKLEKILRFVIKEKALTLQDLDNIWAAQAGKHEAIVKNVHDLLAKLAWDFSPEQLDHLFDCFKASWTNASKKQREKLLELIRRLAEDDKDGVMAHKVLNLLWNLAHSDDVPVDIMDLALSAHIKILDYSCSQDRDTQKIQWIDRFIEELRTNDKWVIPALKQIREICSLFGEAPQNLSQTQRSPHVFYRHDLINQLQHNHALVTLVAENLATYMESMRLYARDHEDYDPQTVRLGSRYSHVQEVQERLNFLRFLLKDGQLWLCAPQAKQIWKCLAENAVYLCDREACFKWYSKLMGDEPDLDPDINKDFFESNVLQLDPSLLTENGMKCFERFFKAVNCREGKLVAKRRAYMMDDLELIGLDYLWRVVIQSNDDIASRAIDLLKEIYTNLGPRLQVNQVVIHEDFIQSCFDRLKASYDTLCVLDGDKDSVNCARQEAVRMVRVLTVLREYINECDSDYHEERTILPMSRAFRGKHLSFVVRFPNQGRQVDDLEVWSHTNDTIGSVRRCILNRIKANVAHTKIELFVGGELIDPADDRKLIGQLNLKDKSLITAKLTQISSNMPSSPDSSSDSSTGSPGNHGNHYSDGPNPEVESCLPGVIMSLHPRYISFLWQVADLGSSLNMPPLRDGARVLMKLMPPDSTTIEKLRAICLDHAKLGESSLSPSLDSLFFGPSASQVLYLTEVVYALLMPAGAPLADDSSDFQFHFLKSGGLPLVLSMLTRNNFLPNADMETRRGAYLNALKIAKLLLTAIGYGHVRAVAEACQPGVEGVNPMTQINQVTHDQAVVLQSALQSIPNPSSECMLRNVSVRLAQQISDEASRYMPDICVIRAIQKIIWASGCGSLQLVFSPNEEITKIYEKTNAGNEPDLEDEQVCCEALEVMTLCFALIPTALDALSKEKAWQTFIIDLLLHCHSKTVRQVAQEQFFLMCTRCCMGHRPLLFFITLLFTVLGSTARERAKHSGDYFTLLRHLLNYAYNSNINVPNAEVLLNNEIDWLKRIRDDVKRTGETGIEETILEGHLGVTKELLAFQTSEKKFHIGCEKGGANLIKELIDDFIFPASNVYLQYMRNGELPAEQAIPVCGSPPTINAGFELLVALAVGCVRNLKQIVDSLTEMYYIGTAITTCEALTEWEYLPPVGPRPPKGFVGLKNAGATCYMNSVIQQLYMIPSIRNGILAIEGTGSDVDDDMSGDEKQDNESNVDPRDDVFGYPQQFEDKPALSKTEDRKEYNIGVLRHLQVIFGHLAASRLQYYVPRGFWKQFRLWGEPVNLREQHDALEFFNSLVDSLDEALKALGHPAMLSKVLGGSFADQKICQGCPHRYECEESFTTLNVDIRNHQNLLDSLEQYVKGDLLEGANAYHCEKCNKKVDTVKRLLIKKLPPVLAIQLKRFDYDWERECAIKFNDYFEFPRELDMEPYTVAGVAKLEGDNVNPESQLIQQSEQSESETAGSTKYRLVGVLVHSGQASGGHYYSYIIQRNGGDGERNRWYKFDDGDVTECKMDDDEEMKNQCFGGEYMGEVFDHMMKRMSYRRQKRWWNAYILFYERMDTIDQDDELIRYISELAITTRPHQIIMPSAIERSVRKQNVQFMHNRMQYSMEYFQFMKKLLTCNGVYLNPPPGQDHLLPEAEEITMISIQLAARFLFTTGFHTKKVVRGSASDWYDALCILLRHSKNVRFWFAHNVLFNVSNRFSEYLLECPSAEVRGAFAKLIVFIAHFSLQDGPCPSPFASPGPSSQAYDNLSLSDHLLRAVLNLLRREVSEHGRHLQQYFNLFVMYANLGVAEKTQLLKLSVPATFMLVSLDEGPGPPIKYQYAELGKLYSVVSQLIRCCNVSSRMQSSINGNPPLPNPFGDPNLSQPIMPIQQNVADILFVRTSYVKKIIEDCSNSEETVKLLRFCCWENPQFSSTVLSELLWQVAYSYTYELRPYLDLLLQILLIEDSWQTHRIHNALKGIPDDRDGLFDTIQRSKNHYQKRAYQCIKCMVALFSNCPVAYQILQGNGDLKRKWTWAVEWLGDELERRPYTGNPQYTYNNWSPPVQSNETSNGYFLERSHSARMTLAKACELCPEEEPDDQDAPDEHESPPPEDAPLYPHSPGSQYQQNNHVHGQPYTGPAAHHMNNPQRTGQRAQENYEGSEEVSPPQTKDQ

Usp9x thermal shift (Usp9x [3]): suggests binding
cytokine-induced caspase-3/7 activity (induced by approximately 60%) (dissociated human islets): abolished
Compound: C[C@@H]1CN([C@@H](C)CO)C(=O)c2cccc(NC(=O)Nc3cccc4ccccc34)c2O[C@H]1CN(C)S(=O)(=O)c1ccc2c(c1)OCCO2 [Compound 21A, N-(((2R,3R)-5-((S)-1-Hydroxypropan-2-yl)-3-methyl-10-(3-(naphthalen-1-yl)ureido)-6-oxo-3,4,5,6-tetrahydro-2H-benzo[b][1,5]oxazocin-2-yl)methyl)-N-methyl-2,3-dihydrobenzo-[b][1,4]dioxine-6-sulfonamide]
cytokine-induced STAT1 reporter gene activity (STAT1 [1]): inhibits cytokine-induced STAT1 reporter gene activity
protein isolated by compound pull-down (Usp9x [2]): Usp9x isolated
glucose-stimulated insulin secretion (GSIS) (INS-1E cells): restored glucose-stimulated insulin secretion (GSIS), showing improved beta-cell function, to nearly normal levels
nuclear STAT1 translocation (STAT1 [4]): Inhibition of nuclear STAT1 translocation
STAT1 phosphorylation (STAT1 [5]): Suppression of STAT1 phosphorylation
